Data from the supplement of paper PMC10307832.

What was measured:
Assay in all cases: relative viability (nuclei count vs DMSO), 5 days (fraction); higher = more cells survive
RU-SKI 43 + Crizotinib = compound: CC[C@@H](C)CNCC(=O)N1CCC2=C([C@@H]1COC3=CC=CC(=C3)C)C=CS2 [RU-SKI 43] + C[C@@H](Oc1cc(-c2cnn(C3CCNCC3)c2)cnc1N)c1c(Cl)ccc(F)c1Cl [Crizotinib] (partner 1 µM)
Summary of the method: (§1)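 Relative viability divides the nuclei count in treated wells by that in vehicle wells. Lung cancer cell lines were seeded in 1536-well plates, dosed by pin tool the next day, and fixed and stained after 5 days in one step with final 0.05% Triton X-100, 1% formaldehyde and 1 ug/ml Hoechst. Dosing was a single drug or a fixed anchor-drug dose plus five library-drug doses (not always all listed) in √10 steps, and values are medians of duplicate plates imaged at 4×.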

RU-SKI 43 + Linsitinib = compound: CC[C@@H](C)CNCC(=O)N1CCC2=C([C@@H]1COC3=CC=CC(=C3)C)C=CS2 [RU-SKI 43] + C[C@]1(O)C[C@@H](c2nc(-c3ccc4ccc(-c5ccccc5)nc4c3)c3c(N)nccn32)C1 [Linsitinib] (partner 1 µM)
Summary of the method: as §1

RU-SKI 43 + Decitabine = compound: CC[C@@H](C)CNCC(=O)N1CCC2=C([C@@H]1COC3=CC=CC(=C3)C)C=CS2 [RU-SKI 43] + Nc1ncn([C@H]2C[C@H](O)[C@@H](CO)O2)c(=O)n1 [Decitabine] (partner 2 µM)
Summary of the method: as §1

MK-8033 + Bortezomib = compound: Cn1cc(-c2cnc3ccc4ccc(CS(=O)(=O)NCc5ccccn5)cc4c(=O)c3c2)cn1 [MK-8033] + CC(C)C[C@H](NC(=O)[C@H](Cc1ccccc1)NC(=O)c1cnccn1)B(O)O [Bortezomib] (partner 0.002 µM)
Summary of the method: as §1

Cell Line | relative viability (RU-SKI 43 + Crizotinib; first compound 0.1 µM) | relative viability (RU-SKI 43 + Crizotinib; first compound 0.3162 µM) | relative viability (RU-SKI 43 + Crizotinib; first compound 1 µM) | relative viability (RU-SKI 43 + Crizotinib; first compound 3.162 µM) | relative viability (RU-SKI 43 + Crizotinib; first compound 10 µM) | relative viability (RU-SKI 43 + Linsitinib; first compound 0.1 µM) | relative viability (RU-SKI 43 + Linsitinib; first compound 0.3162 µM) | relative viability (RU-SKI 43 + Linsitinib; first compound 1 µM) | relative viability (RU-SKI 43 + Linsitinib; first compound 3.162 µM) | relative viability (RU-SKI 43 + Linsitinib; first compound 10 µM) | relative viability (RU-SKI 43 + Decitabine; first compound 0.1 µM) | relative viability (RU-SKI 43 + Decitabine; first compound 0.3162 µM) | relative viability (RU-SKI 43 + Decitabine; first compound 1 µM) | relative viability (RU-SKI 43 + Decitabine; first compound 3.162 µM) | relative viability (RU-SKI 43 + Decitabine; first compound 10 µM) | relative viability (MK-8033 + Bortezomib; first compound 0.02 µM) | relative viability (MK-8033 + Bortezomib; first compound 0.06325 µM) | relative viability (MK-8033 + Bortezomib; first compound 0.2 µM) | relative viability (MK-8033 + Bortezomib; first compound 0.6325 µM) | relative viability (MK-8033 + Bortezomib; first compound 2 µM)
NCI-H596 | 0.998 | 0.904 | 0.987 | 1.06 | 1.03 | 1.14 | 1.07 | 1.08 | 1.02 | 0.96 | 1.08 | 1.04 | 0.91 | 1.16 | 1.07 | 1.18 | 0.933 | 0.882 | 0.941 | 1.09
NCI-H647 | 1.29 | 1.23 | 1.15 | 1.14 | 0.833 | 1.15 | 1.56 | 1.38 | 1.47 | 0.982 | 0.383 | 0.404 | 0.393 | 0.43 | 0.353 | 0.874 | 0.819 | 1.04 | 0.934 | 0.871
NCI-H650 | 0.76 | 0.622 | 0.694 | – | 0.619 | 0.918 | 0.696 | 1.13 | – | 0.911 | 0.281 | 0.335 | – | 0.311 | 0.312 | 0.858 | 0.745 | 0.737 | 0.794 | 0.886
NCI-H661 | 0.887 | 0.943 | 0.984 | 0.942 | 0.938 | 0.433 | 0.645 | 0.557 | 0.518 | 0.651 | 0.483 | 0.603 | 0.588 | 0.557 | 0.465 | 0.764 | 0.685 | 0.647 | 0.907 | 0.858
NCI-H727 | 0.688 | 0.975 | 0.796 | 0.872 | 0.7 | 0.31 | 0.244 | 0.335 | 0.223 | 0.242 | – | 0.805 | 0.882 | 0.834 | 0.972 | 0.873 | 0.62 | 0.882 | 0.993 | 0.857
NCI-H838 | 0.904 | 0.98 | 0.826 | 0.794 | 0.75 | 1.05 | 1.22 | 1.07 | 1 | 1 | 0.416 | 0.489 | 0.469 | 0.429 | 0.444 | 0.794 | 0.721 | 0.87 | 0.79 | 0.706
NCI-H1355 | 1.07 | 1.14 | 1.17 | 1.26 | 1.01 | 0.941 | 0.864 | 0.844 | 0.97 | 0.84 | 0.351 | 0.378 | 0.348 | 0.348 | 0.354 | 1.25 | 1.12 | 1.14 | 1.21 | 1.15
NCI-H1437 | 0.873 | 1.29 | 1.11 | 0.93 | 0.875 | 1.13 | 1.26 | 1.15 | 1.04 | 0.91 | 0.591 | 0.582 | 0.601 | 0.56 | 0.557 | 0.469 | 0.444 | 0.512 | 0.489 | 0.419
NCI-H1651 | 0.886 | 0.971 | 0.891 | 0.887 | 0.865 | 1.08 | 1.34 | 1.09 | 0.959 | 0.908 | 0.624 | 0.593 | 0.7 | 0.593 | 0.589 | 0.988 | 0.868 | 0.968 | 0.999 | 1.02
NCI-H1666 | 0.966 | 1.01 | 0.971 | 0.945 | 0.571 | 0.854 | 0.916 | 0.8 | 0.714 | 0.568 | 0.739 | 0.794 | 0.721 | 0.643 | 0.665 | 0.766 | 0.722 | 0.886 | 0.822 | 0.806
NCI-H1734 | 0.724 | 0.709 | 0.745 | 0.652 | 0.547 | 0.905 | 0.818 | 0.918 | 0.934 | 0.791 | 0.522 | 0.544 | 0.598 | 0.487 | 0.473 | 1.14 | 0.814 | 0.871 | 0.898 | 0.916
NCI-H1755 | 0.809 | 1.15 | 0.953 | 0.889 | 0.74 | 1.02 | 1.13 | 1.05 | 1.02 | 0.993 | 0.714 | 0.798 | 0.758 | 0.715 | 0.755 | 0.987 | 0.834 | 0.933 | 0.849 | 0.835
NCI-H1792 | 1.09 | 1.53 | 1.21 | 1 | 0.921 | 0.46 | 0.601 | 0.596 | 0.585 | 0.538 | 0.392 | 0.667 | 0.682 | 0.728 | 0.561 | 1 | 0.96 | 0.966 | 0.525 | 0.954
NCI-H1915 | 0.913 | 1.36 | 0.938 | 0.957 | 0.959 | 1.11 | 1.18 | 1.23 | 1.11 | 1.11 | 0.272 | 0.257 | 0.285 | 0.25 | 0.255 | 1 | 0.911 | 0.975 | 1.03 | 0.952
NCI-H1975 | 1.04 | 1.3 | 1.12 | 0.925 | 0.709 | 0.985 | 1.1 | 0.951 | 0.996 | 0.869 | 0.346 | 0.377 | 0.439 | 0.381 | 0.276 | 0.386 | 0.328 | 0.365 | 0.429 | 0.367
